# Source: US20240381872A1, “SUBSTITUTED 2,3-DIHYDRO[1,3]THIAZOLO[4,5-B]PYRIDINES, SALTS THEREOF AND THEIR USE AS HERBICIDALLY ACTIVE SUBSTANCES” (BAYER AKTIENGESELLSCHAFT, priority 2021, published 2024)
# How the values were obtained:
# Type in all cases: in vivo
# [1] = tested on: Digitaria sanguinalis (DIGSA); test: Herbicidal post-emergence action, section B (Table B12); conditions: application rate 1280 g/ha; visual rating about 3 weeks after treatment vs untreated controls
# Experimental: (§1) Seeds of mono- and dicotyledonous weed plants were placed in plastic pots in sandy loam soil (doubly sown with in each case one species of mono- or dicotyledonous weed plants per pot), covered with soil and cultivated in a greenhouse under controlled growth conditions. 2 to 3 weeks after sowing, the test plants were treated at the one-leaf stage. The compounds of the invention, formulated in the form of wettable powders (WP) or as emulsion concentrates (EC), were applied onto the green parts of the plants as aqueous suspension or emulsion with addition of 0.5% additive at a water application rate of 600 liters per hectare (converted). After the test plants had been kept in the greenhouse under optimum growth conditions for about 3 weeks, the activity of the preparations was rated visually in comparison to untreated controls. For example, 100% activity=the plants have died, 0% activity=like control plants.
# Veronica persica (VERPE) [2] = test: Herbicidal pre-emergence action, section A (Table A10); conditions: application rate 1280 g/ha
# Outline: (§2)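 Percent herbicidal effect, visually graded about 3 weeks post-treatment against untreated pots, reflects pre-emergence application of WP or EC formulations to the soil surface over seeds sown in sandy loam, using 0.5% additive and 600 l of water per hectare.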
# Poa annua (POAAN) [3] = test: Herbicidal pre-emergence action, section A (Table A7); conditions: visual grading after ca. 3 weeks vs untreated controls
# Outline: as §2
# [4] = tested on: Matricaria inodora (MATIN); test: Herbicidal pre-emergence action, section A (Table A6); conditions: application rate 1280 g/ha; visual grading after ca. 3 weeks vs untreated controls
# Outline: as §2
# Stellaria media (STEME) [5] = test: Herbicidal post-emergence action, section B (Table B9); conditions: application rate 1280 g/ha; visual rating about 3 weeks after treatment vs untreated controls
# Outline: (§3)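 Potted weeds in sandy loam are treated post-emergence at the one-leaf stage, 2 to 3 weeks after sowing. The spray is an aqueous WP or EC preparation with 0.5% additive at 600 liters per hectare. Percent activity is assessed by eye after about 3 weeks versus untreated controls.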
# [6] = tested on: Amaranthus retroflexus (AMARE); test: Herbicidal pre-emergence action, section A (Table A11)
# Outline: as §2
# [7] = tested on: Abutilon theophrasti (ABUTH); test: Herbicidal post-emergence action, section B (Table B1); conditions: application rate 1280 g/ha, rated visually after about 3 weeks
# Experimental: as §1
# Setaria viridis (SETVI) [8] = test: Herbicidal pre-emergence action, section A (Table A8); conditions: application rate 1280 g/ha
# Outline: as §2
# Kochia scoparia (KCHSC) [9] = test: Herbicidal post-emergence action, section B (Table B4); conditions: application rate 320 g/ha; visual rating about 3 weeks after treatment vs untreated controls
# Outline: as §3
# Setaria viridis (SETVI) [10] = test: Herbicidal post-emergence action, section B (Table B8); conditions: application rate 1280 g/ha; visual rating about 3 weeks after treatment vs untreated controls
# Experimental: as §1
# Veronica persica (VERPE) [11] = test: Herbicidal post-emergence action, section B (Table B10); conditions: application rate 320 g/ha; visual rating about 3 weeks after treatment vs untreated controls
# Outline: as §3
# [12] = tested on: Amaranthus retroflexus (AMARE); test: Herbicidal post-emergence action, section B (Table B11); conditions: application rate 1280 g/ha; visual rating about 3 weeks after treatment vs untreated controls
# Outline: as §3
# Kochia scoparia (KCHSC) [13] = test: Herbicidal pre-emergence action, section A (Table A4); conditions: visual grading after ca. 3 weeks vs untreated controls
# Outline: as §2
# Lolium rigidum (LOLRI) = test: Herbicidal pre-emergence action, section A (Table A5); conditions: application rate 320 g/ha; visual grading after ca. 3 weeks vs untreated controls
# Outline: as §2
# [14] = tested on: Echinochloa crus-galli (ECHCG); test: Herbicidal pre-emergence action, section A (Table A3); conditions: visual grading after ca. 3 weeks vs untreated controls
# Outline: as §2
# [15] = tested on: Alopecurus myosuroides (ALOMY); test: Herbicidal pre-emergence action, section A (Table A2); conditions: application rate 1280 g/ha; visual grading after ca. 3 weeks vs untreated controls
# From the text: (§4) Seeds of mono- and dicotyledonous weed plants were sown in plastic pots (double sowings with one species of mono- and one species of dicotyledonous weed plants per pot), in sandy loam, and covered with soil. The compounds according to the invention, formulated in the form of wettable powders (WP) or as emulsifiable concentrates (EC), were applied to the surface of the covering soil as aqueous suspension or emulsion, with the addition of 0.5% of an additive, at an application rate of 600 l of water per hectare (converted). Following treatment, the pots were placed in a greenhouse and kept under optimum growth conditions for the test plants. The visual grading of the damage to the test plants was carried out after ca. 3 weeks in comparison to untreated controls (herbicidal effect in percent (%): 100% effect=plants have died off, 0% effect=as control plants).
# Stellaria media (STEME) [16] = test: Herbicidal pre-emergence action, section A (Table A9); conditions: application rate 320 g/ha
# Outline: as §2
# [17] = tested on: Digitaria sanguinalis (DIGSA); test: Herbicidal pre-emergence action, section A (Table A12); conditions: application rate 1280 g/ha
# Outline: as §2
# Poa annua (POAAN) [18] = test: Herbicidal post-emergence action, section B (Table B7); conditions: application rate 1280 g/ha; visual rating about 3 weeks after treatment vs untreated controls
# Experimental: as §1
# [19] = tested on: Triticum aestivum (TRZAS); test: Post-emergence effects on crop plants, section F (Table F2); conditions: Triticum aestivum, 504 h, application rate 320 g/ha, read-out: post-emergence activity against TRZAS in %
# From the text: (§5) Seeds of mono- and dicotyledonous weed plants and crop plants were sown, in plastic or organic planting pots, in sandy loam, covered with soil and grown in a greenhouse under controlled growth conditions. 2 to 3 weeks after sowing, the test plants were sprayed in the single-leaf stage. The compounds according to the invention, formulated in form of wettable powders (WP) or as emulsifiable concentrates (EC), were sprayed onto the green plant parts as aqueous suspension or emulsion, with the addition of 0.5% of an additive, at an application rate of 600 l of water/ha (converted). The test plants were placed in the greenhouse for ca. 3 weeks under optimum growth conditions, and then the effect of the preparations was assessed visually in comparison with untreated controls (herbicidal effect in percent (%): 100% effect=plants have died off, 0% effect=as control plants). Tables F1 to F4 below show the effects of selected compounds of the general formula (I) according to Table 1 on various crop plants and an application rate corresponding to 320 g/ha or below obtained by the experimental procedure mentioned above.
# [20] = tested on: Amaranthus retroflexus (AMARE); test: Herbicidal pre-emergence action, section C (Table C11); conditions: Amaranthus retroflexus, pre-emergence, 504 h; application rate 320 g/ha; visual grading after ca. 3 weeks; read-out: pre-emergence activity against AMARE in %
# From the text: Seeds of mono- and dicotyledonous weed plants and crop plants were sown, in plastic or organic planting pots, in sandy loam and covered with soil. The compounds according to the invention, formulated in the form of wettable powders (WP) or as emulsifiable concentrates (EC), were applied to the surface of the covering soil as aqueous suspension or emulsion, with the addition of 0.5% of an additive, at an application rate of 600 l of water/ha (converted). Following treatment, the pots were placed in a greenhouse and kept under optimum growth conditions for the test plants. The visual grading of the damage to the test plants was carried out after ca. 3 weeks in comparison to untreated controls (herbicidal effect in percent (%): 100% effect=plants have died off, 0% effect=as control plants).
# [21] = tested on: Triticum aestivum (TRZAS); test: Pre-emergence effects on crop plants, section D (Table D2); conditions: application rate 80 g/ha; visual grading after ca. 3 weeks
# From the text: (§6) Seeds of mono- and dicotyledonous weed plants and crop plants were sown, in plastic or organic planting pots, in sandy loam and covered with soil. The compounds according to the invention, formulated in the form of wettable powders (WP) or as emulsifiable concentrates (EC), were applied to the surface of the covering soil as aqueous suspension or emulsion, with the addition of 0.5% of an additive, at an application rate of 600 l of water/ha (converted).
# (§7) Following treatment, the pots were placed in a greenhouse and kept under optimum growth conditions for the test plants. The visual grading of the damage to the test plants was carried out after ca. 3 weeks in comparison to untreated controls (herbicidal effect in percent (%): 100% effect=plants have died off, 0% effect=as control plants).
# (§8) Tables D1 to D5 below show the effects of various compounds of the general formula (I) according to Table 1 on various crop plants and an application rate corresponding to 320 g/ha or below obtained by the experimental procedure mentioned above in Biological Examples, Section C.
# Glycine max (GLXMA) [22] = test: Pre-emergence effects on crop plants, section D (Table D4); conditions: application rate 80 g/ha; visual grading after ca. 3 weeks
# From the text: as §6, §7, §8
# Glycine max (GLXMA) [23] = test: Post-emergence effects on crop plants, section F (Table F4); conditions: Glycine max, 504 h, application rate 80 g/ha, read-out: post-emergence activity against GLXMA in %
# From the text: as §5
# Zea mays (ZEAMX) = test: Post-emergence effects on crop plants, section F (Table F1); conditions: Zea mays, 504 h, application rate 320 g/ha, read-out: post-emergence activity against ZEAMX in %
# From the text: as §5
# [24] = tested on: Abutilon theophrasti (ABUTH); test: Herbicidal pre-emergence action, section A (Table A1); conditions: application rate 1280 g/ha; visual grading after ca. 3 weeks vs untreated controls
# From the text: as §4
smiles,measurement,setting,value
Cc1ccccc1-c1nc2c(cc1Br)SCN2B1NB(N)N1 [Example I-056],post-emergence activity against DIGSA in %,[1],90%
same,pre-emergence activity against VERPE in %,Veronica persica (VERPE) [2],90%
same,pre-emergence activity against POAAN in %,Poa annua (POAAN) [3]; application rate 1280 g/ha,100%
same,pre-emergence activity against MATIN in %,[4],90%
same,post-emergence activity against STEME in %,Stellaria media (STEME) [5],90%
same,pre-emergence activity against AMARE in %,[6]; application rate 320 g/ha,90%
same,post-emergence activity against ABUTH in %,[7],90%
same,pre-emergence activity against SETVI in %,Setaria viridis (SETVI) [8],100%
same,post-emergence activity against KCHSC in %,Kochia scoparia (KCHSC) [9],90%
same,post-emergence activity against SETVI in %,Setaria viridis (SETVI) [10],90%
same,post-emergence activity against VERPE in %,Veronica persica (VERPE) [11],90%
same,post-emergence activity against AMARE in %,[12],90%
same,pre-emergence activity against KCHSC in %,Kochia scoparia (KCHSC) [13]; application rate 1280 g/ha,100%
same,pre-emergence activity against LOLRI in %,Lolium rigidum (LOLRI),100%
same,pre-emergence activity against ECHCG in %,[14]; application rate 1280 g/ha,100%
same,pre-emergence activity against ALOMY in %,[15],90%
same,pre-emergence activity against STEME in %,Stellaria media (STEME) [16],90%
same,pre-emergence activity against DIGSA in %,[17],100%
same,post-emergence activity against POAAN in %,Poa annua (POAAN) [18],90%
"Cc1cc2c(nc1-c1cccc(F)c1F)N(S(C)(=O)=O)CS2(=O)=O [Example I-151, 5-(2,3-difluorophenyl)-3-(methylsulfonyl)-6-methyl-2,3-dihydro[1,3]thiazolo[4,5-b]pyridine 1,1-dioxide]","percent crop plant damage (wheat, post-emergence) at 320 g/ha",[19],0%
same,pest or weed control at 320 g/ha,[20],100%
same,pre-emergence activity against TRZAS in % (crop plant damage),[21],0%
same,pre-emergence activity against GLXMA in % (crop plant damage),Glycine max (GLXMA) [22],0%
same,percent crop plant damage at 80 g/ha,Glycine max (GLXMA) [23],0%
same,"percent crop plant damage (phytotoxicity) on Zea mays, post-emergence at 320 g/ha",Zea mays (ZEAMX),0%
Cc1cc2c(nc1-c1cccc(C)c1C)N(C(=O)C1(C)CC(Cl)=NO1)CS2 (stereo not drawn) [Example I-138],pre-emergence activity against POAAN in %,Poa annua (POAAN) [3]; application rate 320 g/ha,100%
same,pre-emergence activity against MATIN in %,[4],90%
same,post-emergence activity against STEME in %,Stellaria media (STEME) [5],90%
same,pre-emergence activity against AMARE in %,[6]; application rate 1280 g/ha,90%
same,post-emergence activity against ABUTH in %,[7],90%
same,pre-emergence activity against SETVI in %,Setaria viridis (SETVI) [8],100%
same,post-emergence activity against KCHSC in %,Kochia scoparia (KCHSC) [9],90%
same,post-emergence activity against AMARE in %,[12],100%
same,pre-emergence activity against KCHSC in %,Kochia scoparia (KCHSC) [13]; application rate 320 g/ha,90%
same,pre-emergence activity against ECHCG in %,[14]; application rate 320 g/ha,90%
same,pre-emergence activity against ABUTH in %,[24],90%
same,pre-emergence activity against STEME in %,Stellaria media (STEME) [16],90%
same,pre-emergence activity against DIGSA in %,[17],90%
same,post-emergence activity against POAAN in %,Poa annua (POAAN) [18],90%
